Test results reported in patent US20060242728A1, “Chemically-inducible promotors for the expression of proteins in plants” (priority 2003, published 2006).

Experiments:
NIMIN-1 mRNA = settings: cited from earlier work
NIMIN-2 promoter = assay: GUS reporter gene activity in leaf discs of transgenic lines floated on inducer; assay type: cell-based, Arabidopsis thaliana; settings: leaf discs floated on 1 mM SA or 140 mg/l Bion, 3 days, protein extracts; FIG. 3
Protocol: (§1) For characterizing the influence of chemicals on the activity of the NIMIN promoters, leaf discs were punched from the transgenic lines NIMIN1-GUS and NIMIN2-GUS. As a control, PR-1a promoter fusions were used. The leaf discs were floated on 1 mM SA, 140 mg/l Bion (a functional analogue to salicylic acid) or water. After 3 days, protein extracts were prepared and the activity of the GUS reporter gene in the extracts was assayed. The resulting reporter gene activities were 5 times higher In the NIMIN-2 promoter fusions than In PR-1a promoter fusions (cf. FIG. 3). Further, leaf discs from the transgenic lines NIMIN1-GUS and NIMIN2-GUS were incubated with different salicylic acid concentrations.

NIMIN promoters = assay: GUS reporter gene activity in leaf discs incubated with different salicylic acid concentrations; assay type: cell-based, Arabidopsis thaliana; settings: leaf discs of NIMIN1-GUS and NIMIN2-GUS lines; FIGS. 4 and 5
Protocol: as §1

NIMIN-2 mRNA = settings: cited from earlier work

Structure (SMILES) | inducibility of NIMIN-1 mRNA (NIMIN-1 mRNA) | reporter gene (GUS) activity in NIMIN-2 promoter fusions relative to PR-1a promoter fusions (NIMIN-2 promoter) | activity of the NIMIN promoters versus inducer concentration (NIMIN promoters) | inducibility of NIMIN-2 mRNA (NIMIN-2 mRNA)
O=C(O)c1ccccc1O [salicylic acid] | inducible | 5 times | depends on the salicyclic acid concentration | inducible
CSC(=O)c1cccc2nnsc12 [Bion] | inducible | 5 times | – | inducible
